Source: patent publication US20060234919A1, “Use” (priority 2001, published 2006)

What was measured:
[1] = test system: carrageenan induced edema; experiment: carrageenan induced edema of the rat hindpaw (plethysmometer); type: in vivo; conditions: for carrageenan induced edema, percentage increase in hindpaw volume: 10 mg/kg i.m.
Experimental: Male Sprague-Dawley rats (260-300 g for s.c. injected and 340-380 g for i.c.v. injected) were used (B&K Universal A B, Sollentuna, Sweden). The animals arrived at least one week before experiments and were housed three-four per cage (except animals provided with i.c.v. cannulas that were housed individually) with free access to food (R36, Ewos, Södertälje, Sweden) and water. The light schedule was a 12/12 h light/dark cycle, and ambient temperature was 20±2° C.
Oxytocin and the oxytocin antagonist (1-deamino-2-D-Tyr-(OEt)-4-Thr-8-Orn-oxytocin) (Ferring, Malmö, Sweden) were dissolved in physiological saline and injected in a volume of 1 ml/kg s.c. in the dorsal neck. Dexamethasone (Decadron®, Merck, Sharp & Dome, USA) was administered intramuscularly (i.m.). Oxytocin given i.c.v. was dissolved in a volume of 5 μl physiological saline and slowly injected over a period of 1 minute through the i.c.v. guide cannula via a 25 G stain-less-steel injection needle connected to a 10 μl Hamilton syringe via a polyethylene tube. Controls received saline in the same amounts.
The model of inflammation used, the carrageenan induced edema, is a commonly used model for studies of inflammation and for testing novel anti-inflammatory drugs (Winter C A, Risley E A, Nuss G W. Carrageenan-induced edema in hind paw of the rat as an assay for anti-inflammatory drugs. Proc Soc Exp Biol Med 1962; 111:544-7). To produce acute inflammation, carrageenan, 2 mg in 0.1 ml saline, was injected s.c. into the plantar region of the rat right hindpaw.
The rats were treated s.c. with oxytocin (1.0, 10, 100 or 1000 μg/kg (n=8 in each group) or saline (n=8+8) immediately before the carrageenan injection. The edema of the right hindpaw was measured (volume in ml) using a plethysmometer (Ugo Basile, type 7150, Florence, Italy) before treatment, half an hour after, one hour after, and then every hour up to 6 or 10 hours after treatment.
The results are presented as means±SD. Statistical analysis was performed by means of a 1-way ANOVA, followed by Fisher's test for post-hoc comparisons. In the analysis of myeloperoxidase accumulation, a Student's t-test was used. P-values of 0.05 or less were regarded as statistically significant.
The rats were treated s.c. with oxytocin (1000 μg/kg) and the oxytocin antagonist (1000 μg/kg) (the antagonist was given 30 minutes before oxytocin) (n=8), the oxytocin antagonist alone (1000 μg/kg) (n=8) or saline (n=8) immediately before the carrageenan injection. Measurements as in Example 1.
The rats were treated i.c.v. with oxytocin (1.0 μg/kg) (n=6) or saline (n=7) immediately before the carrageenan injection. Measurements as in Example 1. The animals were anaesthetised with sodiumpentobarbital (50 mg/kg) (Apoteksbolaget, Sweden) injected intraperitoneally (i.p.). The scull was uncovered, a hole was drilled in the right parietal bone and a guide cannula (21 G) was fixed stereotactically to the scull by means of acrylic dental cement. The coordinates were 1.00 mm posterior and 1.30 mm lateral to the bregma. […] The injection needles (25 G) reached 3.80 mm below the dura mater, with the tip of the needle in the right lateral ventricle. The animals were allowed one week of recovery after the operation. At the end of the experiment, the placement of the guide cannula was checked by injection of 2 μl of toluidine blue.
The rats were treated i.m. with dexamethasone (10 mg/kg) (n=6) or saline (n=6) immediately before the carrageenan injection. The edema of the right hindpaw was measured using the plethysmometer before treatment, and at 2, 4 and 6 hours after treatment.

[2] = test system: ischaemic musculocutaneous skin flaps; conditions: antagonist 1 mg/kg s.c.; previously shown by the inventors; cited from earlier work

## C[C@@H]1C[C@H]2[C@@H]3CCC4=CC(=O)C=C[C@]4(C)[C@@]3(F)[C@@H](O)C[C@]2(C)[C@@]1(O)C(=O)CO [Dexamethasone]
[1]; 2 hours, saline 48±10%, p<0.05
  carrageenan induced edema, percentage increase in hindpaw volume: 35±9.3%
[1]; 4 hours, saline 78±12%, p<0.05
  carrageenan induced edema, percentage increase in hindpaw volume: 54±14%
[1]; 6 hours, saline 105±11%, p<0.01
  carrageenan induced edema, percentage increase in hindpaw volume: 71±15%

## 1-deamino-2-D-Tyr-(OEt)-4-Thr-8-Orn-oxytocin [oxytocin antagonist]
[2]
  antagonism of the oxytocin (1 mg/kg s.c.) effect on skin flap survival: abolished
[1]; antagonist 1000 μg/kg s.c. 30 minutes before oxytocin
  abolition of the oxytocin (1000 μg/kg s.c.) induced effect on carrageenan induced edema: did not abolish
[1]; antagonist 1000 μg/kg s.c. administered alone
  effect on carrageenan induced edema: did not induce any effect
